pIC50: −log10 of the molar value. Calls of active or inactive are those of the source. The calls are words filed in the database; no cut-off is given here.
Legend:
CNE-2 [1] = assay: Induction of apoptosis in human CNE-2 cells assessed as necrotic cells at 1 uM measured after 24 hrs by annexin-V-FITC and PI staining based flow cytometry analysis (reference value: 0.959%); assay type: functional
CNE-2 [2] = assay: Antiproliferative activity against human CNE-2 cells assessed as cell growth inhibition by MTT assay; assay type: functional, cell-based
CNE-2 [3] = assay: Induction of cell cycle arrest in human CNE-2 cells assessed as accumulation of cells at G1 phase at 1 uM measured after 48 hrs by flow cytometry analysis (Rvb= 73.18%); assay type: functional
CNE-2 [4] = assay: Induction of ROS generation in human CNE-2 cells at 0.5 to 2 uM incubated for 24 hrs by DCFH2-DA probe based analysis; assay type: functional, cell-based; settings: dose 0.5-2 µM
CNE-2 [5] = assay: Induction of apoptosis in human CNE-2 cells assessed as viable cells at 0.5 uM measured after 24 hrs by annexin-V-FITC and PI staining based flow cytometry analysis (reference value: 94.8%); assay type: functional; settings: read-out: Activity
CNE-2 [6] = assay: Induction of apoptosis in human CNE-2 cells assessed as late apoptotic cells at 2 uM measured after 24 hrs by annexin-V-FITC and PI staining based flow cytometry analysis (reference value: 3.79%); assay type: functional
MGC-803 [7] = assay: Antitumor activity against human MGC-803 cells xenografted in nude mouse assessed as reduction in tumor volume growth rate at 8 mg/kg, ip administrated every other day for 21 days relative to control; assay type: functional; design: scale not given: the % may be the effect or the level left; settings: time 21 day
CNE-2 [8] = assay: Induction of cell cycle arrest in human CNE-2 cells assessed as accumulation of cells at G2 phase at 0.5 uM measured after 48 hrs by flow cytometry analysis (Rvb= 6.99%); assay type: functional
CNE-2 [9] = assay: Induction of apoptosis in human CNE-2 cells assessed as viable cells at 2 uM measured after 24 hrs by annexin-V-FITC and PI staining based flow cytometry analysis (reference value: 94.8%); assay type: functional; settings: read-out: Activity
CNE-2 [10] = assay: Downregulation of CDK2 level in human CNE-2 cells measured after 48 hrs by Western blot analysis; assay type: functional, cell-based; settings: dose <= 2.0 µM
CNE-2 [11] = assay: Induction of apoptosis in human CNE-2 cells assessed as viable cells at 1 uM measured after 24 hrs by annexin-V-FITC and PI staining based flow cytometry analysis (reference value: 94.8%); assay type: functional; settings: read-out: Activity
CNE-2 [12] = assay: Downregulation of cyclin B level in human CNE-2 cells measured after 48 hrs by Western blot analysis; assay type: functional, cell-based; settings: dose <= 2.0 µM
CNE-2 [13] = assay: Induction of apoptosis in human CNE-2 cells assessed as necrotic cells at 0.5 uM measured after 24 hrs by annexin-V-FITC and PI staining based flow cytometry analysis (reference value: 0.959%); assay type: functional
CNE-2 [14] = assay: Induction of apoptosis in human CNE-2 cells assessed as early apoptotic cells at 2 uM measured after 24 hrs by annexin-V-FITC and PI staining based flow cytometry analysis (reference value: 0.439%); assay type: functional
T-24 = assay: Antiproliferative activity against human T24 cells assessed as cell growth inhibition by MTT assay; assay type: functional, cell-based
CNE-2 [15] = assay: Downregulation of cyclin E level in human CNE-2 cells measured after 48 hrs by Western blot analysis; assay type: functional, cell-based; settings: dose <= 2.0 µM
CNE-2 [16] = assay: Induction of cell cycle arrest in human CNE-2 cells assessed as accumulation of cells at G1 phase at 0.5 uM measured after 48 hrs by flow cytometry analysis (Rvb= 73.18%); assay type: functional
CNE-2 [17] = assay: Induction of apoptosis in human CNE-2 cells assessed as late apoptotic cells at 0.5 uM measured after 24 hrs by annexin-V-FITC and PI staining based flow cytometry analysis (reference value: 3.79%); assay type: functional
CNE-2 [18] = assay: Induction of cell cycle arrest in human CNE-2 cells assessed as accumulation of cells at G2 phase at 2 uM measured after 48 hrs by flow cytometry analysis (Rvb= 6.99%); assay type: functional
Homo sapiens [19] = species: Homo sapiens; assay: Binding affinity to pBR322 DNA (unknown origin) assessed as DNA intercalation at 20 to 100 uM by electrophoresis assay; settings: dose 20-100 µM
MGC-803 [20] = assay: Antiproliferative activity against human MGC-803 cells assessed as cell growth inhibition by MTT assay; assay type: functional, cell-based
Homo sapiens [21] = species: Homo sapiens; assay: Binding affinity to pBR322 DNA (unknown origin) assessed as induced retardation of DNA migration at 20 to 100 uM by gel electrophoresis assay; settings: dose 20-100 µM
MGC-803 [22] = assay: Antitumor activity against human MGC-803 cells xenografted in nude mouse assessed as reduction in tumor weight at 8 mg/kg, ip administrated every other day for 21 days relative to control; assay type: functional; design: scale not given: the % may be the effect or the level left; settings: time 21 day
CNE-2 [23] = assay: Induction of cell cycle arrest in human CNE-2 cells assessed as accumulation of cells at S phase at 1 uM measured after 48 hrs by flow cytometry analysis (Rvb= 19.83%); assay type: functional
MGC-803 [24] = assay: Antitumor activity against human MGC-803 cells xenografted in nude mouse assessed as reduction in tumor volume growth rate at 4 mg/kg, ip administrated every other day for 21 days relative to control; assay type: functional; design: scale not given: the % may be the effect or the level left; settings: time 21 day
CNE-2 [25] = assay: Induction of apoptosis in human CNE-2 cells at 0.5 to 2 uM by Hoechst 33258 staining based fluorescence microscopic analysis; assay type: functional, cell-based; settings: dose 0.5-2 µM
[26] = target: T1, DNA topoisomerase 1 (Homo sapiens) (UniProt P11387); assay: Inhibition of human DNA topoisomerase 1 assessed as reduction in pBR322 DNA relaxation at 10 to 20 uM by gel electrophoresis method; settings: dose 10-20 µM
T1 sequence (whole entry): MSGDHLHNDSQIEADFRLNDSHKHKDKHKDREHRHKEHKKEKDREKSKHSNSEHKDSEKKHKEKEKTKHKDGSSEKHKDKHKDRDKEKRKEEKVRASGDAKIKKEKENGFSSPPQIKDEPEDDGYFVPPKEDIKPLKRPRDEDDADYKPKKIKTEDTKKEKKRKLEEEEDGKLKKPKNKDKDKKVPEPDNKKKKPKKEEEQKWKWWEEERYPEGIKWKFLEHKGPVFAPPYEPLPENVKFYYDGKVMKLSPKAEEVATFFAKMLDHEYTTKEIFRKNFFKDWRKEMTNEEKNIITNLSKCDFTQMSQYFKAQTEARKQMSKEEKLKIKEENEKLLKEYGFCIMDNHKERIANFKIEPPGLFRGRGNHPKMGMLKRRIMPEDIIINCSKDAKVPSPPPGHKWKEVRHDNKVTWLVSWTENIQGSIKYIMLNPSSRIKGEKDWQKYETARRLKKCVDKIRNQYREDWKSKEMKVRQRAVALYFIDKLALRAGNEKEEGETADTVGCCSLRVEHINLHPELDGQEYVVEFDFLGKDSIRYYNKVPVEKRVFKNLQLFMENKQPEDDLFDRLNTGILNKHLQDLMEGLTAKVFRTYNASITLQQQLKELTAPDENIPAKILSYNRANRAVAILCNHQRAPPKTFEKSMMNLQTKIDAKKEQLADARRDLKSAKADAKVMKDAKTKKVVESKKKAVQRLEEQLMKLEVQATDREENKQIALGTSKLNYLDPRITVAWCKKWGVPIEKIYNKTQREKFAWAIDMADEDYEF

A2780 = assay: Antiproliferative activity against human A2780 cells assessed as cell growth inhibition by MTT assay; assay type: functional, cell-based
CNE-2 [27] = assay: Induction of apoptosis in human CNE-2 cells assessed as early apoptotic cells at 1 uM measured after 24 hrs by annexin-V-FITC and PI staining based flow cytometry analysis (reference value: 0.439%); assay type: functional

Activity (Homo sapiens [19])	Structure (SMILES)	Activity (CNE-2 [1]) [%]	pIC50 (CNE-2 [2])	Activity (CNE-2 [3]) [%]	Activity (CNE-2 [4])	viability at 0.5 µM (CNE-2 [5]) [%]	Activity (CNE-2 [6]) [%]	Activity (MGC-803 [7]) [%]	Activity (CNE-2 [8]) [%]	viability at 2 µM (CNE-2 [9]) [%]	Activity (CNE-2 [10])	viability at 1 µM (CNE-2 [11]) [%]	Activity (CNE-2 [12])	Activity (CNE-2 [13]) [%]	Activity (CNE-2 [14]) [%]	pIC50 (T-24)	Activity (CNE-2 [15])	Activity (CNE-2 [16]) [%]	Activity (CNE-2 [17]) [%]	Activity (CNE-2 [18]) [%]	other results
Active	CN(C)CCN1C(=O)c2cccc3c(N4CCOCC4)c([N+](=O)[O-])cc(c23)C1=O	5.56	5.83	69.25	Active	84	9.2	56.1	7.03	71.9	Dose-Dependent Effect	82.9	Dose-Dependent Effect	2.12	17	5.81	Dose-Dependent Effect	72.47	8.17	25.48	pIC50 (MGC-803 [20]): 5.81; Activity (Homo sapiens [21]): Active; Activity (MGC-803 [22]): 46.9%; Activity (CNE-2 [23]): 18.12%; Activity (MGC-803 [24]): 59.9%; Activity (CNE-2 [25]): Active; inhibition [26]: Active; pIC50 (A2780): 5.32; Activity (CNE-2 [27]): 3.01%
Active	O=C1c2cccc3c(N4CCOCC4)c([N+](=O)[O-])cc(c23)C(=O)N1CCNCCN1C(=O)c2cccc3c(N4CCOCC4)c([N+](=O)[O-])cc(c23)C1=O	7.3	6.39	66.18	Active	82.6	13.4	46	1.55	70.1	Dose-Dependent Effect	83.4	Dose-Dependent Effect	7.04	2.62	5.91	Dose-Dependent Effect	66.68	6.61	11.96	pIC50 (MGC-803 [20]): 7.05; Activity (Homo sapiens [21]): Active; Activity (MGC-803 [22]): 46%; Activity (CNE-2 [23]): 31.13%; Activity (MGC-803 [24]): 49.7%; Activity (CNE-2 [25]): Active; inhibition [26]: Active; pIC50 (A2780): 6.21; Activity (CNE-2 [27]): 2.19%

— ChEMBL document CHEMBL5252609, “Design, synthesis, and antitumor evaluation of morpholine substituted bisnaphthalimides as DNA targeting agents” (Bioorg Med Chem Lett, 2023)
